Read-outs that look alike come from different tables or passages of the source. One block for each compound: values may come before it.
How the values were obtained:
right atrium = experiment: Action to heart of guinea pig: right atrium (pulsations); parameters: species or system Hartley guinea pigs; details: for inhibition at 10 µM / inhibition at 100 µM: Cavia porcellus, read-out: Pulsation;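 on Pulsation: Dash means no recognizable influence on pulsation rate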
Protocol: (§1) Hartley guinea pigs (body weight of 300-400 g) were rendered unconscious by knocking their head and fixed upwardly to exenterate their heart. […] The vessel was previously filled with the Krebs-Henseleit solution and the said mixed gas was continuously fed therein.
(§2) Samples were prepared by separating from a ventricular muscle a right and left atrium, along an auricloventricular furrow or groove from the center-line of the right and left auricles.
A contraction of the sample, due to a compound to be tested, was recorded through an FD pick-up. Concurrently, pulsations were input to a measuring unit to count and record number of the pulsations.

left atrium = experiment: Action to heart of guinea pig: left atrium (contraction power); parameters: species or system Hartley guinea pigs
Protocol: as §1, §2
The atrium was driven by contacting it with a platinum bipolar electrode attached to the cellfin and by stimulating the same with a rectangular pulse (1 Hz, 1 msec, 10 V). A movement of the sample was recorded by connecting the sample to a recorder through a silk thread and a FD pick-up.

aldose reductase = aldose reductase (Rattus norvegicus, UniProt P07943); experiment: Inhibition to aldose reductase (method of Kador et al); format: biochemical; details: read-out: IC50 (50% Inhibitory Concentration)
Excerpt: An ability for reducing or inhibiting activity of aldose reductase was checked, in accordance with the method of Kador et al as described in "Biophys.

platelet = experiment: Inhibition of platelet agglutination (rat PRP); format: cell-based
Protocol: A blood was taken from a descending aorta of the rat anesthetized with ethyl ether. To the blood, 3.8% aqueous sodium citrate was added by a volume of 1/3 and the resulting solution was centrifuged (1500 rpm) at 4° C. for 10 minutes to obtain a supernatant which was designated as "PRP (platelet rich plasma)". The remaining residue was centrifuged (3000 rpm) at 4° C. for 10 minutes to obtain a supernatant which was designated as "PPP (platelet poor plasma)". A stirrer bar and PRP (267 μl) were inserted in a cell and PPP (more than 300 μl) was charged in another cell. A transmissivity to PRP and PPP was measured and set as "0%" for the former case and as "100%" for the latter case.
After a preincubation for 1 minute, a compound to be tested was added by 3 μl and then an agglutination causing substance (collagen or ADP) was added by 30 μl at a time lapsed of 1 minute from the addition of testing compound. For a control group, 3 μl of dimethylsulfoxide was added, instead of the testing compound. A maximum value in transmissivity change after the addition of agglutination causing substance was determined and made as a platelet agglutination rate (%).

thoracic aorta = experiment: Action to the aorta of guinea pig (relaxation of contracted spiral samples); parameters: species or system Hartley guinea pigs; details: Cavia porcellus
Excerpt: Hartley guinea pigs (body weight of 300-500 g) were rendered unconscious fainted by knocking their head and fixed upwardly. A thoracic aorta was taken out to prepare spiral samples, each having size of about 2×25 mm. The sample was suspended in a Magnus tube under a load of about 1 g and upper end of the sample was connected through a silk thread to a FD pick-up to record a change in isometric tension.
Composition of Krebs-Henseleit solution:
Prior to the experiment, the sample in the Magnus tube was left to stand, as it was, for 60 to 90 minutes and in such period of time, the Krebs-Henseleit solution was exchanged to fresh one at an interval of 20 to 30 minutes.
When the contraction of the sample became constant, the compound to be tested was gradually added in a amount starting at a concentration of 10^-8, to […] to observe the contraction of the sample. Finally, papaverine was added therein, so as to make its final concentration of 2×10^-5 g/ml, to check and record also the relaxing reaction or atony caused by the papaverine.

[1] = Cavia porcellus, read-out: Contraction
[2] = agglutination caused by ADP, N.D. : not detected, read-out: IC50 ADP
[3] = agglutination caused by collagen, read-out: IC50 Collagen
[4] = contraction by KCl 2.5×10^-2 M, 37° C., read-out: IC50 KCl contraction (50% relaxing)
[5] = contraction by norepinephrine 10^-6 g/ml, 37° C., read-out: IC50 N.E. contraction (50% relaxing)
[6] = 10^-4 (M), right atrium, 32°±1° C.
[7] = 10^-5 (M), right atrium, 32°±1° C.
[8] = 10^-5 (M), left atrium, 32°±1° C.
[9] = Cavia porcellus, 10^-4 (M), left atrium, 32°±1° C., read-out: Contraction

SMILES: CC(C)NCC(O)COc1cccc2ccccc12 (stereo not drawn) [A, Propranolol, reference compound]
inhibition at 10 µM (right atrium): > 20% | inhibition at 100 µM (right atrium): > 20% | inhibition at 10 µM (left atrium; [1]): > 20% | inhibition at 100 µM (left atrium; [1]): > 20%

SMILES: O=C1NC(=O)[C@@]2(C[C@@H](C(=O)NCCN3CCC(Cc4ccccc4)CC3)Oc3ccc(F)cc32)N1 [Example 11, (2S,4S)-N-[2-(4-Benzylpiperidin-1-yl)ethyl]-6-fluoro-2'5'-dioxospiro[chroman-4,4'-imidazolidine]-2-carboxamide]
IC50 (aldose reductase): 1.9 µM | IC50 (platelet; [2]): 370 µM | IC50 (platelet; [3]): 83 µM | IC50 (thoracic aorta; [4]): 1.9 µM | IC50 (thoracic aorta; [5]): 0.1 µM | inhibition at 100 µM (right atrium; [6]): > 20% | inhibition at 10 µM (right atrium; [7]): 10 to 20% | Contraction (left atrium; [8]): - | inhibition at 100 µM (left atrium; [9]): 10 to 20%

SMILES: O=C1NC(=O)[C@@]2(C[C@@H](C(=O)NCCO[N+](=O)[O-])Oc3ccc(F)cc32)N1 [Example 13, (2S, 4S)-N-(2-Nitroxyethyl)-6-fluoro-2',5'-dioxospiro[chroman-4,4'-imidazolidine]-2-carboxamide]
IC50 (aldose reductase): 0.19 µM | IC50 (platelet; [3]): 240 µM | IC50 (thoracic aorta; [4]): 60 µM | IC50 (thoracic aorta; [5]): 20 µM

IC50 (aldose reductase): 0.65 µM | IC50 (thoracic aorta; [4]): > 1000 µM | IC50 (thoracic aorta; [5]): > 1000 µM
SMILES: O=C1NC(=O)[C@@]2(C[C@@H](C(=O)NCCn3ccnc3)Oc3ccc(F)cc32)N1 [Example 14, (2S,4S)-N-{2-[(Imidazol-1-yl)ethyl]}-6-fluoro-2',5'-dioxospiro[chroman-4,4'-imidazolidine]-2-carboxamide]

SMILES: O=C1NC(=O)[C@@]2(C[C@@H](C(=O)NNc3cccc4ccccc34)Oc3ccc(F)cc32)N1 [Example 6, (2S,4S)-6-Fluoro-2',5'-dioxospiro[chroman-4,4'-imidazolidine]-2-(N'-1-naphthyl)carbohydrazide]
IC50 (aldose reductase): 0.013 µM | IC50 (platelet; [3]): 230 µM | Pulsation (right atrium; [7]): - | inhibition at 100 µM (right atrium; [6]): 10 to 20% | Contraction (left atrium; [8]): - | inhibition at 100 µM (left atrium; [9]): 10 to 20%

SMILES: O=C1NC(=O)[C@@]2(C[C@@H](C(=O)NNc3ccc(Cl)cc3)Oc3ccc(F)cc32)N1 [Example 4, (2S,4S)-6-Fluoro-2',5'-dioxospiro[chroman-4,4'-imidazolidine]-2-(N'-4-chlorophenyl)carbohydrazide]
IC50 (aldose reductase): 0.026 µM | IC50 (platelet; [3]): 180 µM | IC50 (thoracic aorta; [4]): > 1000 µM | IC50 (thoracic aorta; [5]): > 1000 µM | Pulsation (right atrium; [7]): - | inhibition at 100 µM (right atrium; [6]): 10 to 20% | Contraction (left atrium; [8]): - | inhibition at 100 µM (left atrium; [9]): 10 to 20%

SMILES: O=C1NC(=O)[C@@]2(C[C@@H](C(=O)NCCN3CCN(C(c4ccccc4)c4ccccc4)CC3)Oc3ccc(F)cc32)N1 [Example 10, (2S,4S)-N-{2-[4-(Diphenylmethyl)piperazin-1-yl]ethyl}-6-fluoro-2',5'-dioxospiro[chroman-4,4'-imidazolidine]-2-carboxamide]
IC50 (aldose reductase): 0.15 µM | IC50 (platelet; [2]): 700 µM | IC50 (platelet; [3]): 410 µM | IC50 (thoracic aorta; [4]): 1.8 µM | IC50 (thoracic aorta; [5]): 100 µM | inhibition at 100 µM (right atrium; [6]): > 20% | inhibition at 10 µM (right atrium; [7]): 10 to 20% | Contraction (left atrium; 10^-4 (M), left atrium, 32°±1° C.): - | Contraction (left atrium; [8]): -

SMILES: COc1ccc2c(c1)c(CC(=O)O)c(C)n2C(=O)c1ccc(Cl)cc1 [Indomethacin, reference compound]
IC50 (platelet; [3]): 68 µM

SMILES: CC(C(O)c1ccc(O)cc1)N1CCC(Cc2ccccc2)CC1 (stereo not drawn) [B, Ifenprodil, reference compound]
inhibition at 100 µM (right atrium; [6]): > 20% | inhibition at 10 µM (right atrium; [7]): > 20% | Contraction (left atrium; [8]): - | inhibition at 100 µM (left atrium; [9]): 10 to 20%

IC50 (aldose reductase): 0.3 µM | IC50 (thoracic aorta; [4]): > 1000 µM | IC50 (thoracic aorta; [5]): > 1000 µM
SMILES: CNNC(=O)[C@@H]1C[C@]2(NC(=O)NC2=O)c2cc(F)ccc2O1 [Example 2, (2S,4S)-6-Fluoro-2',5'-dioxospiro[chroman-4,4'-imidazolidine]-2-(N'-methyl)carbohydrazide]

SMILES: O=C1NC(=O)[C@@]2(C[C@@H](C(=O)NCCN3CCN(CC=Cc4ccccc4)CC3)Oc3ccc(F)cc32)N1 [Example 8, (2S,4S)-N-[2-(4-Cinnamylpiperazin-1-yl)ethyl]-6-fluoro-2',5'-dioxospiro[chroman-4,4'-imidazolidine]-2-carboxamide]
IC50 (aldose reductase): 0.22 µM | IC50 (platelet; [3]): 250 µM | IC50 (thoracic aorta; [4]): > 1000 µM | IC50 (thoracic aorta; [5]): > 1000 µM | Pulsation (right atrium; [7]): - | inhibition at 100 µM (right atrium; [6]): 10 to 20% | Contraction (left atrium; [8]): - | inhibition at 100 µM (left atrium; [9]): 10 to 20%

SMILES: COc1ccccc1N1CCN(CCNC(=O)[C@@H]2C[C@]3(NC(=O)NC3=O)c3cc(F)ccc3O2)CC1 [Example 9, (2S,4S)-N-{2-[4-(2-Methoxyphenyl)piperazin-1-yl]ethyl}-6-fluoro-2',5'-dioxospiro[chroman-4,4'-imidazolidine]-2-carboxamide]
IC50 (aldose reductase): 0.24 µM | IC50 (platelet; [3]): 660 µM | IC50 (thoracic aorta; [4]): > 1000 µM | IC50 (thoracic aorta; [5]): > 1000 µM | Pulsation (right atrium; [6]): - | Pulsation (right atrium; [7]): - | Contraction (left atrium; [8]): - | inhibition at 100 µM (left atrium; [9]): 10 to 20%

SMILES: COc1cc(/C=C/C(=O)N2CCN(CC(=O)N3CCCC3)CC2)cc(OC)c1OC [Cinepazide, reference compound]
IC50 (thoracic aorta; read-out: IC50 KCl contraction (50% relaxing)): 2000 µM | IC50 (thoracic aorta; read-out: IC50 N.E. contraction (50% relaxing)): 1000 µM

IC50 (aldose reductase): 0.038 µM | IC50 (thoracic aorta; [4]): 95 µM | IC50 (thoracic aorta; [5]): 2 µM
SMILES: NNC(=O)[C@@H]1C[C@]2(NC(=O)NC2=O)c2cc(F)ccc2O1 [Example 1, (2S,4S)-6-Fluoro-2',5'-dioxospiro[chroman-4,4'-imidazolidine]-2-carbohydrazide]

SMILES: CC(=O)Oc1ccccc1C(=O)O [Aspirin, reference compound]
IC50 (platelet; [3]): 210 µM

SMILES: O=C1NC(=O)[C@@]2(C[C@@H](C(=O)NNc3ccccc3)Oc3ccc(F)cc32)N1 [Example 3, (2S,4S)-6-Fluoro-2',5'-dioxospiro[chroman-4,4'-imidazolidine]-2-(N'-phenyl)carbohydrazide]
IC50 (aldose reductase): 0.022 µM | IC50 (platelet; [3]): 140 µM | IC50 (thoracic aorta; [4]): 30 µM | IC50 (thoracic aorta; [5]): 0.8 µM | Pulsation (right atrium; [6]): - | Pulsation (right atrium; [7]): - | Contraction (left atrium; [8]): - | inhibition at 100 µM (left atrium; [9]): 10 to 20%

SMILES: COc1ccc(NNC(=O)[C@@H]2C[C@]3(NC(=O)NC3=O)c3cc(F)ccc3O2)cc1 [Example 5, (2S,4S)-6-Fluoro-2',5'-dioxospiro[chroman-4,4'-imidazolidine]-2-(N'-4-methoxyphenyl)carbohydrazide]
IC50 (aldose reductase): 0.044 µM | IC50 (platelet; [3]): 26 µM | IC50 (thoracic aorta; [4]): 5 µM | IC50 (thoracic aorta; [5]): 30 µM | Pulsation (right atrium; [6]): - | Pulsation (right atrium; [7]): - | Contraction (left atrium; [8]): - | inhibition at 100 µM (left atrium; [9]): 10 to 20%

IC50 (aldose reductase): 0.15 µM | IC50 (thoracic aorta; [4]): 160 µM | IC50 (thoracic aorta; [5]): 30 µM
SMILES: COc1cc(C=CC(=O)N2CCN(CCNC(=O)[C@@H]3C[C@]4(NC(=O)NC4=O)c4cc(F)ccc4O3)CC2)cc(OC)c1OC [Example 12, (2S,4S)-N-{2-[4-(3,4,5-Trimethoxycinnamoyl)piperazin-1-yl]ethyl}-6-fluoro-2',5'-dioxospiro[chroman-4,4'-imidazolidine]-2-carboxamide]
Pulsation (right atrium; [6]): - | Pulsation (right atrium; [7]): - | Contraction (left atrium; [8]): - | inhibition at 100 µM (left atrium; [9]): 10 to 20%

IC50 (aldose reductase): 0.037 µM | IC50 (thoracic aorta; [4]): > 1000 µM | IC50 (thoracic aorta; [5]): > 1000 µM
SMILES: O=C1NC(=O)[C@@]2(C[C@@H](C(=O)NO)Oc3ccc(F)cc32)N1 [Example 7, (2S,4S)-6-Fluoro-2',5'-dioxospiro[chroman-4,4'-imidazolidine]-2-hydroxamic acid]
